Where two headings read alike, the source gives them in different places.
Legend:
[1] = test system: TOV-112D endometrioid adenocarcinoma ovarian cancer cell line; test: Cell proliferation assay (CellTiter-Glo), TOV-112D; type: cell-based; settings: 96-well, 5000 cells per well, 120 hours, highest concentration tested 9000 nM, off-target readout, read-out: TOV-112D GI50 (low PARG dependency)
Protocol: For Examples 1-11, RMUG-S mucinous cystadenocarcinoma (JCRB, #IF050320) and TOV-112D endometrioid adenocarcinoma (ATCC, #CRL-11731) ovarian cancer cell lines were grown in DMEM/F-12 with glutamine (BioConcept, #1-26F09-I) and RPMI with glutamine (BioConcept, #1-41F03-1), respectively, and both media containing 10% FBS (Sigma-Aldrich, #F9665) and supplemented with 1% Penicillin-Streptomycin (BioConcept, #4-01F00-H) using standard cell culture techniques. RMUG-S and TOV-112D ovarian cancer cell lines were selected as highly PARG dependent and having low PARG dependency, respectively, based on their publically available PARG shRNA (short hairpin ribonucleic acid) dropout profiles in the Cancer Dependency Map (DepMap) data portal (Broad Institute DepMap Project; Cheung H W et al, Proceedings of the National Academy of Sciences 2011; Cowley G S et al, Scientific Data 2014; McDonald E R et al, Cell 2017). PARG dependency of these cell lines was independently verified and confirmed by genetic and pharmacological means using shRNA-mediated PARG depletion, and the previously reported cell-permeable quinazolinedione PARG inhibitor tool compound PDD00017273 (Pillay N et al, Cancer Cell 2019). Thus, growth inhibition of the RMUG-S cell line serves as a functional on-target inhibition readout, while observing potent growth inhibition of TOV-112D is indicative of compound off-target activity. Cells were seeded in 96-well plates with clear bottom (Huberlab, #7.655 090) at a seeding density of 5000 cells per well in 100 μL of medium, and the plates were incubated overnight at 37° C. with 5% CO2 prior to treatment with compounds. Experimental compounds were prepared in DMSO at a concentration of 10 mM. Compounds were distributed at the desired final concentrations using the Tecan D300e Digital Dispenser (TECAN) and normalized to the highest DMSO volume. The plates were incubated for 120 hours and cell numbers were then measured using CellTiter-Glo® (Promega, #G9241), essentially as recommended by the manufacturer. Briefly, for the CellTiter-Glo® proliferation readout, 50 μL of the reconstituted CellTiter-Glo® 2.0 Reagent were added to 100 μL of medium containing cells. The plates were incubated at room temperature for 10 minutes to stabilize the luminescent signal, and luminescence intensity signals were then measured with a Synergy 4™ microplate reader (BioTek Instruments). Relative proliferation values were calculated by normalizing the raw data using DMSO-treated cells (100% proliferation) and the signals obtained from cells that were evaluated at the time of compound addition (0% proliferation). The concentration-response data were fitted to a sigmoidal 4-parameter logistic model with the maximum constrained to 100%. GI50 values were calculated from the curves as the compound concentrations reducing proliferation to 50%.

NCI-H1650 = test: Modified cell proliferation assay (CellTiter-Glo), NCI-H1650; type: cell-based; settings: modified protocol, 384-well, 300 cells per well, 120 h, highest concentration tested 30000 nM, read-out: NCI-H1650 GI50 (high PARG dependency)
Summary of the method: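 NCI-H1650 or RMUG-S cells seeded at 300 cells/well in RPMI1640 with 10% FCS, compounds added after 24 h, then 120 h at 37 °C/5% CO2. Viability read by CellTiter-Glo luminescence; IC50 from fitted dose-response inflection point. Z′≥0.5 required.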

Row | SMILES | GI50 ([1]; Homo sapiens, TOV112D) | GI50 (NCI-H1650; Homo sapiens, NCI-H1650) | GI50 [1] | GI50 (NCI-H1650)
1 | CO/N=c1\[nH]c2ccc(S(=O)(=O)NC3(C)CC3)cc2c(=O)n1Cc1cnc(C)s1 [Example 1, 2-methoxyimino-N-(1-methylcyclopropyl)-3-[(2-methylthiazol-5-yl)methyl]-4-oxo-1H-quinazoline-6-sulfonamide] | ≥ 9000 nM | 500 to 2000 nM |  | 
2 | CO/N=c1\[nH]c2c(-c3ccc(C(=O)N(C)C)cc3)cc(S(=O)(=O)NC3(C)CC3)cc2c(=O)n1Cc1cnn(C)c1 [Example 5, 4-[2-methoxyimino-6-[(1-methylcyclopropyl)sulfamoyl]-3-[(1-methylpyrazol-4-yl)methyl]-4-oxo-1H-quinazolin-8-yl]-N,N-dimethyl-benzamide] | ≥ 9000 nM | > 2000 nM |  | 
3 | CON=c1[nH]c2c(N3CCN(C(=O)C4(C)CC4)[C@H](C)C3)cc(S(=O)(=O)NC3(C)CC3)cc2c(=O)n1Cc1cnn(C)c1 [Example 8, 2-methoxyimino-N-(1-methylcyclopropyl)-3-[(1-methylpyrazol-4-yl)methyl]-4-oxo-8-[(3R)-3-methyl-4-(1-methylcyclopropanecarbonyl)piperazin-1-yl]-1H-quinazoline-6-sulfonamide] |  |  | 500 to 2000 nM | < 500 nM

The remaining lines, values ahead:

Row | GI50 ([1]; Homo sapiens, TOV112D) | GI50 (NCI-H1650; Homo sapiens, NCI-H1650) | GI50 [1] | GI50 (NCI-H1650) | SMILES
4 | ≥ 9000 nM | 500 to 2000 nM |  |  | CO/N=c1\[nH]c2ccc(S(=O)(=O)NC3(C)COC3)cc2c(=O)n1Cc1cnn(C)c1 [Example 2, 2-methoxyimino-N-(3-methyloxetan-3-yl)-3-[(1-methylpyrazol-4-yl)methyl]-4-oxo-1H-quinazoline-6-sulfonamide]
5 | ≥ 9000 nM | > 2000 nM |  |  | Cc1nc(C)c(CO/N=c2\[nH]c3ccc(S(=O)(=O)NC4(C)CC4)cc3c(=O)n2Cc2cnn(C)c2)s1 [Example 3, 2-[(2,4-dimethylthiazol-5-yl)methoxyimino]-N-(1-methylcyclopropyl)-3-[(1-methylpyrazol-4-yl)methyl]-4-oxo-1H-quinazoline-6-sulfonamide]
6 | ≥ 9000 nM | < 500 nM |  |  | CO/N=c1\[nH]c2c(N3CCN[C@H](C)C3)cc(S(=O)(=O)NC3(C)CC3)cc2c(=O)n1Cc1cnn(C)c1 [Example 7, 2-methoxyimino-N-(1-methylcyclopropyl)-3-[(1-methylpyrazol-4-yl)methyl]-4-oxo-8-[(3R)-3-methylpiperazin-1-yl]-1H-quinazoline-6-sulfonamide]

Reference: US20260042754A1, “Substituted Bicyclic Heteroaryl Sulfonamide Derivatives for the Treatment of Cancer” (NODUS ONCOLOGY LIMITED, priority 2022, published 2026)
